Laboratory results published in patent US7285687B2 (priority 2002, dated 2007).
Like-named read-outs stand apart in the source and are kept apart here.

Columns and labels:
CB2 receptor = molecular target: T1, CB2 receptor (Homo sapiens, UniProt P34972); assay: CB2 binding procedure, displacement of [3H]CP-55,940 from membranes of transfected CHO cells; conditions: for CB1/CB2: ratio of CB1 Ki to CB2 Ki
T1 construct: expressed in transfected cells
Procedure: Membranes for CB2 binding were obtained from CHO cells. The transfected cell line was maintained in Dublecco's Modified Eagle Medium (Gibco BRL, Grand Island, N.Y.) with 10% fetal clone II (HyClone Laboratories, Inc., Logan, Utah) plus 0.3 to 0.5 mg/ml G418 (to maintain selective pressure) under 5% CO2 at 37% C. Cells were harvested with 1 mM EDTA in phosphate-buffered saline and were centrifuged at 1000×g for 5 min at 4% C. The supernatant was saved and the P1 pellet was resuspended in centrifugation buffer. Homogenization and centrifugation were repeated twice and the combined supernatant fractions were centrifuged at 40,000×g for 30 min at 4% C. The P2 pellet was resuspended in centrifugation buffer 2 (Tris HCl, 50 mM; EDTA, 1 mM; and MgCl2, 3 mM, pH 7.4) to a protein concentration of approximately 2 mg/ml. Protein concentrations were determined by the method of Bradford (1976) using Bio-Rad Protein Assay (Bio-Rad, Richmond, Calif.) and BSA standards (fatty acid free, Sigma Chemical Co., St. Louis, Mo.). The membrane preparation was divided into amounts convenient for binding assays and frozen rapidly in dry ice and stored at −80% C.
Binding was initiated by the addition of 50•g of quickly thawed P2 membranes to test tubes containing [^3H]CP-55,940 (final reaction concentration 0.5 nM), an appropriate concentration of unlabeled CP-55,940 or test drug, and sufficient quantity of assay buffer (50 mM Tris-HCl, 1 mM EDTA, 3 mM MgCl2, 5 mg/ml bovine serum albumin, pH 7.4) to bring the total incubation volume to 0.5 ml. Concentration of [^3H]CP-55,940 in saturation studies ranged from 50 to 10,000 pM. […] CP-55,940 and all cannabinoid analogs were-prepared by suspension in assay buffer from a 1 mg/ml ethanolic stock without evaporation of the ethanol (final concentration of no more than 0.4%). In competition studies, analog concentrations ranged from 0.1 nM to 10•M. After incubation at […] for 1 hr, binding was terminated by the addition of 2 ml of ice-cold wash buffer (50 mM Tris-HCl and 1 mg/ml BSA) and vacuum filtration through pre-treated filters in a 12-well sampling manifold (Millipore, Bedford, Mass.). Reaction vessels were washed once with 2 ml of ice-cold wash buffer. Filters were placed into 7-ml plastic scintillation vials (RPI Corp., Mount Prospect, Ill.) with 4 ml of Budget-Solve (RPI Corp.). After shaking for 30 min, the radioactivity present was determined by liquid scintillation spectrometry. Three reaction vessels were used for each drug concentration in each assay. The results represent the combined data of three independent experiments. All assays were performed in siliconized test tubes, which were prepared by air drying (12 hr) inverted borosilicate tubes after two rinses with a 0.1% solution of AquaSil (Pierce, Rockford, Ill.). The GF/C glass-fiber filters (2.4 cm, Baxter, McGaw Park, Ill.) were pre-treated in a 0.1% solution of pH 7.4 polyethylenimine (Sigma Chemical Co.) for at least 6 hr.
(§1) In addition, multiple linear regression was used to calculate the overall degree of relationship between CB1 binding affinity and potency in the mouse measures for all active cannabinoids. […] Ki values for CB1 and CB2 binding were obtained from Scatchard displacement analysis as determined via EBDA program of the KELL software package (Biosoft, Milltown, N.J.).

male ICR mice [1] = assay: Change in rectal temperature (RT) in mice, i.v.; assay type: in vivo, mouse; conditions: for R.T. effect at dose: @ 30 mg/kg; for ED50: Mus musculus, iv
Procedure: (§2) Male ICR mice (25-32 g), obtained from Harlan (Dublin, Va.), were housed in groups of five. All animals were kept in a temperature-controlled (20-22° C.) environment with a 12-hour light-dark cycle (lights on at 7 a.m.). Separate mice were used for testing each drug dose in the in vivo behavioral procedures. Brain tissue for binding studies was obtained from male Sprague-Dawley rats (150-200 g) purchased from Harlan Laboratories (Dublin, Va.).
(§3) Measurement of spontaneous activity in mice occurred in standard activity chambers interfaced with a Digiscan Animal Activity Monitor (Omnitech Electronics, Inc., Columbus, Ohio). A standard tail-flick apparatus and a digital thermometer (Fisher Scientific, Pittsburgh, Pa.) were used to measure antinociception and rectal temperature, respectively.
(§4) Resorcinols were synthesized in our labs (Organix, Inc., Woburn, Mass.) according to the procedure specified below and were suspended in a vehicle of absolute ethanol, Emulphor-620 (Rhone-Poulenc, Inc., Princeton, N.J.), and saline in a ratio of 1:1:18. Drugs were administered to the mice intravenously (i.v.) in the tail vein at a volume of 0.1 ml/10 g.
(§5) Prior to testing in the behavioral procedures, mice were acclimated to the experimental setting (ambient temperature 22-24° C.) overnight. Pre-injection control values were determined for rectal temperature and tail-flick latency (in sec). Five min after i.v. injection with drug or vehicle, mice were placed in individual activity chambers and spontaneous activity was measured for 10 min. […] Tail-flick latency was measured at 20 min post-injection. Maximum latency of 10 sec was used. Antinociception was calculated as percent of maximum possible effect {% MPE=[(test−control latency)/(10-control)]×100}. Control latencies typically ranged from 1.5 to 4.0 sec. At 30 min post-injection, rectal temperature was measured. This value was expressed as the difference between control temperature (before injection) and temperatures following drug administration (° C.). Different mice (n=5-6 per dose) were tested for each dose of each compound. Each mouse was tested in each of the 3 procedures.
(§6) Based on data obtained from numerous previous studies with cannabinoids, maximal cannabinoid effects in each procedure were estimated as follows: 90% inhibition of spontaneous activity, 100% MPE in the tail flick procedure, and −6° C. change in rectal temperature. ED50's were defined as the dose at which half maximal effect occurred. For drugs that produced one or more cannabinoid effect, ED50's were calculated separately using least-squares linear regression on the linear part of the dose-effect curve for each measure in the mouse tetrad, plotted against log10 transformation of the dose. For the purposes of potency comparison, potencies were expressed as μmol/kg.

male ICR mice [2] = assay: Tail-flick antinociception (TF, % MPE) in mice, i.v.; assay type: in vivo, mouse
Procedure: as §2, §3, §4, §5, §6

CB1 receptor = molecular target: T2, CB1 receptor (Rattus norvegicus, UniProt P20272); assay: CB1 binding procedure, displacement of [3H]CP 55,940 from rat whole-brain P2 membranes
T2 construct: whole brain was homogenized and centrifuged; from tissue; host or cells: whole brain of male Sprague-Dawley rats, P2 membrane fraction
T2 sequence (P20272 whole entry): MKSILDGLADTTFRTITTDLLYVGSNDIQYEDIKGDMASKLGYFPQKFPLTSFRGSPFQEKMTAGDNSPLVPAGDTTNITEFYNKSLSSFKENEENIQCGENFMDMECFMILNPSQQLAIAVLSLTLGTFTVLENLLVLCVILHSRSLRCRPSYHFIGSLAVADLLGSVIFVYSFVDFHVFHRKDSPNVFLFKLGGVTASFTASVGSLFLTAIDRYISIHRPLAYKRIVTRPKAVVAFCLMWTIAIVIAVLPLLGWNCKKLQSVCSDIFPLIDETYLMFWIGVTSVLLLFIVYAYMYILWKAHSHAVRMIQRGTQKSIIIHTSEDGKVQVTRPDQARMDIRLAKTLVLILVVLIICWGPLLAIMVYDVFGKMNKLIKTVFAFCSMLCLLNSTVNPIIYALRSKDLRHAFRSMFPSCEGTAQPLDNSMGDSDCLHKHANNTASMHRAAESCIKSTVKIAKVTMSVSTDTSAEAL
Procedure: as §2
The methods used for tissue preparation and binding have been described previously (Compton et al., 1993) and are similar to those described by Devane et al. (1988). All assays, as described briefly below, were performed in triplicate, and the results represent the combined data from three to six individual experiments.
Following decapitation and rapid removal of the brain, whole brain was homogenized and centrifuged. The resulting pellet was termed P1. The supernatant was saved and combined with the two subsequent supernatants obtained from washing of the P1 pellet. The combined supernatant fractions were centrifuged, resulting in the P2 pellet. After further incubation and centrifuging, this pellet was resuspended in assay buffer to a protein concentration of approximately 2 mg/ml. The membrane preparation was quickly frozen in a bath solution of dry ice and 2-methylbutane (Sigma Chemical Co., St. Louis, Mo.), then stored at −80° C. for no more than 2 weeks. Prior to performing a binding assay an aliquot of frozen membrane was rapidly thawed and protein values determined by the method of Bradford (1976).
Binding was initiated by the addition of 150•g of P2 membrane to test tubes containing 1 nM of [^3H] CP 55,940 (79 Ci/mmol) and a sufficient quantity of buffer to bring the total incubation volume to 1 ml. […] Following incubation at 30° C. for 1 hr, binding was terminated by addition of ice cold buffer and vacuum filtration through pretreated filters in a 12-well sampling manifold (Millipore, Bedford, Mass.). After washing, filters were placed into plastic scintillation vials (Packard, Downer Grove, Ill.) and shaken. The quantity of radioactivity present was determined by liquid scintillation spectrometry.
as §1

male ICR mice [3] = assay: Suppression of spontaneous activity (SA) in mice, i.v.; assay type: in vivo, mouse; conditions: Mus musculus, iv
Procedure: as §2, §3, §4, §5, §6

T1 sequence (P34972 whole entry): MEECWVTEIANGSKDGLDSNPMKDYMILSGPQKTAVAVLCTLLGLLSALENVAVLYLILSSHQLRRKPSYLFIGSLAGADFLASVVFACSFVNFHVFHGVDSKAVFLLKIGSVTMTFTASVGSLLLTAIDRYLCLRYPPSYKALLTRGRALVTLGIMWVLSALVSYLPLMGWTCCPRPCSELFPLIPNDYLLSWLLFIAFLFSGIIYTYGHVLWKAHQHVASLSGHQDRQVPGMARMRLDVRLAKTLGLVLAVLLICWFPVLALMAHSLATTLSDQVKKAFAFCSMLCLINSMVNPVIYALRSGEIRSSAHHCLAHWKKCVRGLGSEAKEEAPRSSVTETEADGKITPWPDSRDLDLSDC

Compound | CB1/CB2 (CB2 receptor) | R.T. effect at dose (male ICR mice [1]; Table 6, 30 mg/kg) | Ki (CB2 receptor; Table 6, read-out: CB2 KI) [nM] | Ki (CB1 receptor; Table 6, read-out: CB1 KI) [nM] | ED50 (male ICR mice [3]; Table 6, read-out: S.A. ED50) [mg/kg] | further results
CCCCCCC(C)(C)c1cc(OC)c(C2(O)CCCC(C)C2)c(OC)c1 (single isomer, unassigned; isomer 1) [O-1966A, 1-[4-(1,1-Dimethyl-heptyl)-2,6-dimethoxy-phenyl]-3-methyl-cyclohexanol isomer 1] | 220 | 0.5 @ 30 °C |  |  |  | 
C=C(C)[C@@H]1CCC(C)=CC1c1c(C)cc(O)cc1O (single isomer, unassigned; (-)) [O-1602] |  |  | > 10000 | > 10000 |  | inhibition in vivo at 30 mg/kg (male ICR mice [2]; Mus musculus, iv, @ 30 mg/kg, Table 6, read-out: T.F. % effect at dose): 0%; R.T. effect at dose (male ICR mice [1]; Table 6): 0.3 @ 30 °C
CCCCCCC(C)(C)c1cc(OC)c(C2(O)CCCC(C)C2)c(OC)c1 (single isomer, unassigned; isomer 2) [O-1967B, 1-[4-(1,1-Dimethyl-heptyl)-2,6-dimethoxy-phenyl]-3-methyl-cyclohexanol isomer 2] | 15 | 0 @ 30 °C |  |  |  | T.F. % effect at dose (male ICR mice [2]; @ 30 mg/kg, Table 6, 30 mg/kg): 8.2% @30
CCCCCCC(C)(C)c1cc(O)c(C2CCCC(C)(C)C2)c(O)c1 (stereo not shown) [O-1871] | 7 |  | 0.3 ± 0.01 | 2.3 ± 0.32 | 0.04 | ED50 (male ICR mice [3]; 95% confidence limits in parentheses, read-out: ED50 SA (suppression of spontaneous activity)): < 1 µmol/kg; Ki (CB2 receptor; mean ± SEM, [3H]CP-55,940, transfected CHO cell membranes, read-out: Ki(nM) CB2): 0.3 ± 0.01 nM; ED50 (male ICR mice [2]; Mus musculus, iv, 95% confidence limits in parentheses, read-out: ED50 TF (antinociception in tail flick assay)): 2.3 µmol/kg; ED50 (male ICR mice [2]; Mus musculus, iv, Table 6, read-out: T.F. ED50): 0.7 mg/kg; ED50 (male ICR mice [1]; 95% confidence limits in parentheses, read-out: ED50 RT (rectal temperature)): 1.3 µmol/kg; ED50 (male ICR mice [1]; Table 6, read-out: R.T. ED50): 0.37 mg/kg; Ki (CB1 receptor; mean ± SEM, [3H]CP 55,940, rat brain membranes, read-out: Ki(nM) CB1): 2 ± 0.3 nM
CCCCCCC(C)(C)c1cc(O)c(C2CCSC2)c(O)c1 (stereo not shown) [O-1661, 2-(Tetrahydrothiophen-3-yl)-5-(1′,1′-dimethylheptyl)-resorcinol] | 5 |  |  |  | 7.65 | 
